Laboratory results: patent publication US7981878B2, “Tumor treatment with gliotoxin derivatives” (priority 2005, dated 2011)

Tests used:
Notch2 (N2^IC) = assay: Nuclear Notch2 activity in B-CLL cells by EMSA (band shift assay); format: cell-based, human; conditions: B-CLL cell cultures incubated with 50 nM Dapt
Procedure: FIG. 3: Gliotoxin is a potent Notch2 trans-activation inhibitor in B-CLL cells. (A) EMSA showing the inhibition of DNA-bound Notch2IC complexes in the presence of 0.2 μg Gliotoxin. B-CLL samples (n=10) were cultured in the presence of 1 ng/ml TPA with or without 0.2 μM Gliotoxin for 24 hours. Nuclear extracts were subjected to EMSA using a oligonucleotide probe spanning a well defined CBF1/NotchIC binding site derived from the CD23a promoter. (B). Corresponding FACS analysis (plus 10 additional B-CLL samples) showing the downregulation of the Notch2 target gene CD23 as well as the induction of apoptosis of Gliotoxin treated B-CLL samples. Columnes represent the percentage of CD19^+CD23^+ (grey bars) and apoptotic cells (black bars: including early apoptotic cells single positive for AnnexinV, and late apoptotic cells double positive for AnnexinV and probidium iodide), respectively.
As drug screening model, a cell culture system was established which conserves the phenotype of freshly isolated B-CLL cells (3×10^6 B-CLL cells/ml RPMI medium+10% FCS, supplemented with 1 ng/ml of TPA). Notch2 activity in the cell nucleus is determined by means of EMSA (electrophoretic mobility shift assay) experiments, and the cell viability (Probidium iodide/annexinV) and CD23 expression (Notch2 target gene) is determined by means of FACS (flow cytometry) analyses, respectively. […]

γ-secretase = γ-secretase inhibitor; cited from earlier work
[1] = tested on: K 562, U 937, HCT-15, HCT-116, SW946, LX-1, P 388, colon-26 cell lines; conditions: as indicated in EP 926 242 A1; cited from earlier work

Molecule | influence on the activity of N2^IC (Notch2 (N2^IC)) | IC50 (γ-secretase) [nM] | efficacy against tumour cell lines [1]
C[C@H](NC(=O)Cc1cc(F)cc(F)c1)C(=O)N[C@H](C(=O)OC(C)(C)C)c1ccccc1 [Dapt, reference compound] | no influence | 5 to 10 | 
acetylgliotoxin |  |  | effective
